Measurements reported in the NIST ThermoML archive (doi:10.1016/j.tca.2011.12.010).
Several values for one entry are separate records, joined by “and”; a condition that tells them apart may be missing. Equal values may be shown once. Numbers after ± are expanded uncertainties.

Assay: molar heat capacity at constant pressure
Conditions: 101.33 kPa, Liquid, Small sample (50 mg) DSC

O=[N+]([O-])[O-].O=[N+]([O-])[O-].O=[N+]([O-])[O-].O=[N+]([O-])[O-].[K+].[K+].[Mg+2] [bis-potassium magnesium nitrate]
molar heat capacity at constant pressure (543 K): 489 ± 9.8 J/K/mol
molar heat capacity at constant pressure (544 K): 490.7 ± 9.8 J/K/mol
molar heat capacity at constant pressure (545 K): 491.8 ± 9.8 J/K/mol
molar heat capacity at constant pressure (546 K): 493.5 ± 9.9 J/K/mol
molar heat capacity at constant pressure (547 K): 494.9 ± 9.9 J/K/mol
molar heat capacity at constant pressure (548 K): 495.6 ± 9.9 J/K/mol
molar heat capacity at constant pressure (549 K): 496.7 ± 9.9 J/K/mol
molar heat capacity at constant pressure (550 K): 498.4 ± 10 J/K/mol
molar heat capacity at constant pressure (551 K): 499.5 ± 10 J/K/mol
molar heat capacity at constant pressure (552 K): 500.9 ± 10 J/K/mol
molar heat capacity at constant pressure (553 K): 502.3 ± 10 J/K/mol
molar heat capacity at constant pressure (554 K): 503 ± 10 J/K/mol
molar heat capacity at constant pressure (555 K): 504.4 ± 10 J/K/mol
molar heat capacity at constant pressure (556 K): 505.8 ± 10 J/K/mol
molar heat capacity at constant pressure (557 K): 506.5 ± 10 J/K/mol
molar heat capacity at constant pressure (558 K): 508.2 ± 10 J/K/mol
molar heat capacity at constant pressure (559 K): 508.9 ± 10 J/K/mol
molar heat capacity at constant pressure (560 K): 510.3 ± 10 J/K/mol
molar heat capacity at constant pressure (561 K): 511.4 ± 10 J/K/mol
molar heat capacity at constant pressure (562 K): 512.4 ± 10 J/K/mol
molar heat capacity at constant pressure (563 K): 513.1 ± 10 J/K/mol
molar heat capacity at constant pressure (564 K): 514.2 ± 10 J/K/mol
molar heat capacity at constant pressure (565 K): 515.2 ± 10 J/K/mol
molar heat capacity at constant pressure (566 K): 517 ± 10 J/K/mol
molar heat capacity at constant pressure (567 K): 518 ± 10 J/K/mol
molar heat capacity at constant pressure (568 K): 518.4 ± 10 J/K/mol
molar heat capacity at constant pressure (569 K): 518.4 ± 10 J/K/mol
molar heat capacity at constant pressure (570 K): 519.1 ± 10 J/K/mol
molar heat capacity at constant pressure (571 K): 519.4 ± 10 J/K/mol
molar heat capacity at constant pressure (572 K): 518.4 ± 10 J/K/mol
molar heat capacity at constant pressure (573 K): 519.1 ± 10 J/K/mol
molar heat capacity at constant pressure (574 K): 519.1 ± 10 J/K/mol
molar heat capacity at constant pressure (575 K): 521.4 ± 10 J/K/mol and 519.4 ± 10 J/K/mol
molar heat capacity at constant pressure (576 K): 519.8 ± 10 J/K/mol
molar heat capacity at constant pressure (577 K): 518.7 ± 10 J/K/mol
molar heat capacity at constant pressure (578 K): 511.7 ± 10 J/K/mol
molar heat capacity at constant pressure (579 K): 512.8 ± 10 J/K/mol
molar heat capacity at constant pressure (580 K): 514.2 ± 10 J/K/mol and 525.2 ± 10 J/K/mol
molar heat capacity at constant pressure (581 K): 515.9 ± 10 J/K/mol
molar heat capacity at constant pressure (582 K): 517.3 ± 10 J/K/mol
molar heat capacity at constant pressure (583 K): 518.7 ± 10 J/K/mol
molar heat capacity at constant pressure (584 K): 520.5 ± 10 J/K/mol
molar heat capacity at constant pressure (585 K): 521.9 ± 10 J/K/mol and 529.9 ± 11 J/K/mol
molar heat capacity at constant pressure (586 K): 524 ± 10 J/K/mol
molar heat capacity at constant pressure (587 K): 525.4 ± 10 J/K/mol
molar heat capacity at constant pressure (588 K): 526.8 ± 10 J/K/mol
molar heat capacity at constant pressure (589 K): 528.2 ± 11 J/K/mol
molar heat capacity at constant pressure (590 K): 529.9 ± 11 J/K/mol and 531.4 ± 11 J/K/mol
molar heat capacity at constant pressure (591 K): 525.4 ± 10 J/K/mol
molar heat capacity at constant pressure (592 K): 525.4 ± 10 J/K/mol
molar heat capacity at constant pressure (593 K): 526.1 ± 10 J/K/mol
molar heat capacity at constant pressure (594 K): 526.4 ± 10 J/K/mol
molar heat capacity at constant pressure (595 K): 525.4 ± 10 J/K/mol and 534.2 ± 11 J/K/mol
molar heat capacity at constant pressure (596 K): 526.1 ± 10 J/K/mol
molar heat capacity at constant pressure (597 K): 526.1 ± 10 J/K/mol
molar heat capacity at constant pressure (598 K): 527.1 ± 10 J/K/mol
molar heat capacity at constant pressure (599 K): 525.7 ± 10 J/K/mol
molar heat capacity at constant pressure (600 K): 525 ± 10 J/K/mol and 537.1 ± 11 J/K/mol
molar heat capacity at constant pressure (601 K): 526.4 ± 10 J/K/mol
molar heat capacity at constant pressure (602 K): 521.9 ± 10 J/K/mol
molar heat capacity at constant pressure (603 K): 521.9 ± 10 J/K/mol
molar heat capacity at constant pressure (604 K): 519.8 ± 10 J/K/mol
molar heat capacity at constant pressure (605 K): 522.6 ± 10 J/K/mol and 539.5 ± 11 J/K/mol
molar heat capacity at constant pressure (606 K): 524.7 ± 10 J/K/mol
molar heat capacity at constant pressure (607 K): 524.7 ± 10 J/K/mol
molar heat capacity at constant pressure (608 K): 520.8 ± 10 J/K/mol
molar heat capacity at constant pressure (609 K): 521.9 ± 10 J/K/mol
molar heat capacity at constant pressure (610 K): 526.8 ± 10 J/K/mol and 541 ± 11 J/K/mol
molar heat capacity at constant pressure (611 K): 532 ± 11 J/K/mol
molar heat capacity at constant pressure (612 K): 525 ± 10 J/K/mol
molar heat capacity at constant pressure (613 K): 529.2 ± 11 J/K/mol
molar heat capacity at constant pressure (614 K): 536.6 ± 11 J/K/mol
molar heat capacity at constant pressure (615 K): 532 ± 11 J/K/mol and 545.6 ± 11 J/K/mol
molar heat capacity at constant pressure (616 K): 533.8 ± 11 J/K/mol
molar heat capacity at constant pressure (617 K): 541.5 ± 11 J/K/mol
molar heat capacity at constant pressure (618 K): 537.6 ± 11 J/K/mol
molar heat capacity at constant pressure (619 K): 543.2 ± 11 J/K/mol
molar heat capacity at constant pressure (620 K): 538.7 ± 11 J/K/mol and 547.7 ± 11 J/K/mol
molar heat capacity at constant pressure (621 K): 542.2 ± 11 J/K/mol
molar heat capacity at constant pressure (622 K): 543.6 ± 11 J/K/mol
molar heat capacity at constant pressure (623 K): 544.3 ± 11 J/K/mol
molar heat capacity at constant pressure (623.15 K): 543.9 ± 11 J/K/mol and 552.9 ± 11 J/K/mol
